Measured values taken from PubChem BioAssay (NCI).
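All cell lines were grown in 96-well plates and treated with compound for 48 hours. Here, GI50 denotes the concentration required for 50% inhibition of growth. The concentration for full growth arrest is given as TGI.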

What was measured:
Experiment in all cases: NCI-60 cell line screen, 48 h
[1] = system: 786-0 renal
[2] = system: OVCAR-8 ovarian
[3] = system: HL-60(TB) leukemia
[4] = system: CCRF-CEM leukemia
[5] = system: SF-539 CNS
[6] = system: EKVX NSCLC
[7] = system: SF-268 CNS
[8] = system: SF-295 CNS
[9] = system: DU-145 prostate
[10] = system: OVCAR-4 ovarian

SMILES | GI50 [1] [µM] | TGI [1] [µM] | GI50 [2] [µM] | TGI [2] [µM] | GI50 [3] [µM] | TGI [3] [µM] | GI50 [4] [µM] | TGI [4] [µM] | GI50 [5] [µM] | TGI [5] [µM] | GI50 [6] [µM] | TGI [6] [µM] | GI50 [7] [µM] | TGI [7] [µM] | GI50 [8] [µM] | TGI [8] [µM] | GI50 [9] [µM] | TGI [9] [µM] | GI50 [10] [µM] | TGI [10] [µM]
C=C(C(=O)c1ccccc1)C(NC(C)(C)C)c1ccccc1 (stereo not drawn) | 2.06 | 4.08 | 3.02 | 10.8 | 2.03 | 7.82 | 0.629 | 43.7 | 3.21 | 8.36 | 3.53 | 13.7 | 3.61 | 18.6 | 2.9 | 10.8 | 3.11 | 13.2 | 4.72 | 17.1
Cc1cc(O)ccc1C1(c2ccc(O)cc2C)OC(=O)c2ccccc21 | 16.8 | 34 | 23.3 | 46.5 | 22.8 | 64.2 | 24.4 | 67.7 | 17.4 | 33.5 | 14.9 | 31 | 19 | 43.9 | 16.2 | 31.7 | 18 | 31.9 | 16.4 | 30.8
CC(C)[C@@]12C[C@@H](OC(=O)COC(=O)c3ccccc3)[C@@](C)(O1)[C@@H]1CC[C@@H](C)[C@H]1[C@@H]2OC(=O)/C=C/c1ccccc1 | 3.95 | > 100 | 0.134 | > 100 | > 75.1 | > 100 | > 100 | > 100 | > 100 | > 100 | > 100 | > 100 | – | > 100 | > 100 | > 100 | > 100 | > 100 | > 63.1 | > 100
CCc1ccc(Oc2c(-c3ccc(OCCc4cccc(C(F)(F)F)c4)cc3O)n[nH]c2C(F)(F)F)cc1 | 6.38 | 12.9 | 5.25 | 11.6 | 5.2 | 12.9 | 2.55 | 9.18 | 7.39 | 14 | 5.11 | 11.2 | 5.02 | 11 | 8.12 | 15.4 | 2.62 | 8.35 | 2.22 | 8.05
COc1cc(-c2oc3c(OC)c(O)c(OC)c(O)c3c(=O)c2OC)cc(OC)c1OC | – | > 100 | – | > 100 | – | > 100 | – | > 100 | – | > 100 | – | > 100 | – | 71.5 | – | > 100 | – | > 100 | – | > 100
CC(C)c1cnc(-c2cc(Cl)ccc2F)cc1Nc1ccncc1C(=O)NC(CO)CO | 14.1 | 37.1 | 14.6 | 49.8 | 20.1 | 60.7 | 11.6 | 54.2 | 15 | 29.9 | 11.2 | 24.6 | 12.3 | 33 | 13.1 | 26.6 | 13.4 | 42 | 13.7 | 66.3
Cn1c2c(c3ccccc31)CCN1C[C@@H]3CCCC[C@H]3C[C@@H]21 | 3.58 | 17.5 | 2.84 | > 30.2 | 2.27 | > 28.4 | 4.77 | > 100 | 2.87 | > 30 | 5.57 | > 100 | 3.22 | > 40.2 | 2.25 | 6.58 | 2.36 | 5.8 | 4.36 | > 100
CCOC(=O)c1c(C)n([O-])c2cc(F)c(F)cc2[n+]1=O | 6.73 | 19.8 | 0.88 | 2.47 | 0.105 | – | 1.1 | 7.84 | 3.91 | 8.84 | 1.96 | 3.98 | 1.57 | 3.69 | 1.74 | 3.41 | 3.27 | 9.01 | 1.72 | 3.92
C[n+]1cccc(NC(=O)c2ccc3ccc4ccc(C(=O)Nc5ccc[n+](C)c5)nc4c3n2)c1 | 8.99 | > 100 | 9.02 | > 100 | 3.54 | > 100 | 5.56 | > 100 | 3.33 | 15.6 | 5.08 | > 100 | 3.82 | 42.1 | 2.59 | 25.3 | 0.376 | 15.6 | 7.37 | > 100
CSC1=CC(=O)c2ccccc2C1=O | 4.06 | 14.1 | 3.58 | 15 | 1.87 | 4.33 | 0.296 | 1.44 | 11.4 | 24.3 | 15.5 | 34.9 | 8.85 | 22.1 | 15.4 | 31.5 | 10.8 | 23.6 | 1.36 | 2.67
